Measurements as given in US12600696B2 (XENIOPRO GMBH, priority 2017, dated 2026).

How the values were obtained:
Type in all cases: cell-based
[1] = test system: HL-60 cells (human acute myeloid leukemia cells); experiment: alamarBlue proliferation assay with HL-60 cells; conditions: 120 h, 5 days, relative to DMSO baseline level of 1.0, read-out: AVEw, weighted arithmetic mean of normalized fluorescence intensity values (Activity Range), HL-60 proliferation
Protocol: (§1) The antiproliferative activities of compounds falling under formula I, formula II, formula III, formula IV and formula V were investigated on cells or cell lines originating from a disorder of the myeloid cell compartment, the neuroendocrine system, the cervix, and the mucosal epithelium, as well as from the skin epithelium. To this end, HL-60 cells, TT cells, HeLa cells, CAL-27 cells and human primary epidermal keratinocytes (HPEK) were seeded into 96-well plates suitable for fluorescence assays (CORNING #3598) at following initial cell numbers: 1000 cells per well for HL-60; 9000 cells per well for TT; 2000 cells per well for HeLa, 2000 cells per well for CAL-27, 2000 cells per well for HPEK. The cells were treated with compounds at indicated final concentrations (diluted from the 1000× stock-solutions in DMSO to a final DMSO concentration of 0.1% v/v) or with the empty carrier DMSO at 0.1% v/v as control for 5 days. At day 5 after starting the treatments the cells were subjected to the alamarBlue® Proliferation Assay (Bio-Rad Serotec GmbH, BUF012B) according to the protocol of the manufacturer. The readout was taken with a multi-well plate-reader in the fluorescence mode with applying a filter for excitation at 560 nm (band width 10 nm) and for emission at 590 nm (band width 10 nm). Resveratrol (RES) treatment was included as control for growth inhibition.
(§2) The assays were performed in duplicate or more replicates of independent single experiments each containing a six-fold replicate for every condition. For every individual plate, the measured fluorescence intensity values of the conditions with compound treatment were normalized against the corresponding equally weighted arithmetic mean of the fluorescence intensity values of the six DMSO treated control wells in order to obtain the relative values to a baseline level of 1.0. The statistical calculations were performed in analogy to the luciferase assay as described above. To this end, two independent outlier analyses were performed according to the methods by Peirce and Chauvenet (Ross, Journal of Engineering Technology 2003, 1-12). Outliers confirmed by at least one of the methods were excluded from the calculations but not more than one value out of six per compound within a single experiment. The weighted arithmetic mean AVEw for each compound was calculated from the normalized values over all independent replicates of the single experiments comprising the six replicates each. The corresponding standard deviation for the weighted arithmetic mean was calculated according to the method described by Bronstein et al. (Bronstein, Semendjajew, Musiol, Mühlig, Taschenbuch der Mathematik, 5th edition 2001 (German), publisher: Verlag Harri Deutsch, Frankfurt am Main and Thun) and was combined with the Gauß′ error propagation associated with the performed calculation for the normalization. The resulting standard deviation is herein referred to as “combined standard deviation”.
HL-60 cells were cultivated according to the protocol of the provider in RPMI 1640 medium (Fisherscientific, #11554526) containing 10% fetal bovine serum (Fisherscientific, #15517589).
(§3) A compound is considered as a growth inhibitor of HL-60 cells, if—at a reference concentration of 20 μM—the weighted arithmetic mean of the normalized fluorescence intensity values after addition of the corresponding combined standard deviation amounts to 0.9 or lower, in particular to 0.8 or lower, 0.7 or lower, 0.6 or lower, 0.4 or lower, and 0.2 or lower, relative to the overall basis level of 1.0. The overall basis level was calculated as the weighted arithmetic mean of all normalized values from the DMSO control measurements in analogy to the calculations performed for the test-compounds. The corresponding combined standard deviation for the DMSO values amounts to less than 1·10^−2.

[2] = test system: CAL-27 cells (human tongue squamous cell carcinoma cells); experiment: alamarBlue proliferation assay with CAL-27 cells; conditions: Homo sapiens, 120 h, 20 μM, 5 days, relative to DMSO baseline level of 1.0, read-out: AVEw, weighted arithmetic mean of normalized fluorescence intensity values (Activity Range), CAL-27 proliferation
Protocol: as §1, §2
CAL-27 cells were cultivated according to the protocol of the provider (but at 5% instead of 10% CO2) in DMEM medium (Fisherscientific, #11584456) containing 10% fetal bovine serum (Fisherscientific, #15517589).
as §3, with “CAL-27” for “HL-60”

[3] = test system: Notch signaling (hNotch1ΔE, human Notch1 receptor) in HeLa cells; experiment: Notch reporter assay (luciferase luminescence readout in transfected HeLa cells); conditions: Homo sapiens, 20 hours, relative to DMSO baseline level of 1.0, read-out: AVEw, weighted arithmetic mean of double-normalized Notch-reporter luciferase luminescence values (Activity Range)
Protocol: An according Notch-reporter assay, i.e. a luciferase-based luminescence readout, was used here to quantify the ability of the claimed small molecules to augment Notch signaling in a cellular system. For this purpose, HeLa cells, obtainable from the American Type Culture Collection (ATCC) under the accession number ATCC-CCL-2, were transiently transfected for 24 hours using FuGENE® HD (Promega, #E2311) as transfection reagent with expression vectors of a membrane-tethered form of the constitutively active intracellular domain of the human Notch1 receptor (hNotch1ΔE) to activate the signaling cascade (BPS Bioscience, human analogue to Notch Pathway Reporter Kit #60509 component C), a Firefly luciferase being expressed under the control of a Notch-responsive promoter to monitor Notch signaling (BPS Bioscience, Notch Pathway Reporter Kit #60509, CSL luciferase reporter vector from component A not premixed with Renilla luciferase vector), and a Renilla luciferase being constitutively expressed in a Notch signaling independent manner to include a measure for the cell number per sample (Promega, pRL-SV40, #E2231). HeLa cells were cultivated according to the protocol of the provider in DMEM medium (Fisherscientific, #11584456) containing 10% fetal bovine serum (Fisherscientific, #15517589). The transfection was carried out in a 100 mm-culture dish (StarLab, #CC7682-3394) with cells being properly attached to the plate at a cell confluency of 80-90% in a total volume of 7 mL culture medium. Per dish to be transfected, a transfection mix was prepared by adding to 238 μL Opti-MEM (Fisherscientific, #10149832) 40 μL of the hNotch1ΔE expression vector (100 ng/μL), 80 μL of the CSL luciferase reporter vector (40 ng/μL), 4 μL of the pRL-SV40-Renilla luciferase vector (10 ng/μL), and in the last step 18.1 μL of FuGENE® HD. After addition of FuGENE® HD the transfection mix was let stand for 15 min at room temperature and hereafter equally distributed into the culture dish. Subsequently, i.e. after 24 hours of transfection, the transfected cells (10.000 cells per well) were incubated with the test-compounds at a final concentration of 10 μM (diluted from 10 mM stock-solutions in DMSO to a final DMSO concentration of 0.1% v/v) or with the empty carrier DMSO at 0.1% v/v as control for 20 hours in 96-well plates suitable for luminescence readouts (CORNING, #3610). Hereafter, the cells were lysed with 30 μL per well of Passive Lysis Buffer (Promega, #E194A, component of Dual-Luciferase® Reporter Assay System, #E1910) and the Firefly as well as Renilla luciferase values were measured with a luminescence reader with applying 15 μL per well each of the corresponding enzyme substrates needed to create the luminescence signals (Promega, Dual-Luciferase® Reporter Assay System, #E1910).
The suitability of the assays for monitoring Notch signaling was controlled by additionally including a generally accepted commercial Notch inhibitor, i.e. DAPT, as negative control, as well as the reported Notch enhancer resveratrol (RES) as positive control (Pinchot et al., Cancer 2011, 117, 1386-1398; Truong et al., Ann. Surg. Oncol. 2011, 18, 1506-1511; Yu et al., Mol. Cancer Ther. 2013, 12, 1276-1287). Both control compounds were likewise tested at 10 μM.
Per single experiment the measurement was performed in six replicates per compound. For every compound, this experiment was repeated in three or more independent replicates. The values of the Notch-reporter luciferase were normalized by division through the corresponding individual Notch-independent Renilla values in order to eliminate the impact of variation in the absolute cell-numbers in between the samples. For every individual plate, a second normalization was performed against the equally weighted arithmetic mean (here abbreviated as AVE) of the six associated Renilla-normalized DMSO-control values within a single experiment in order to obtain the relative values to a baseline level of 1.0. […]

SMILES | activity at 20 µM [1] | activity at 20 µM [2] | fold induction at 10 µM [3]
Cc1ccc(Oc2ccc(C(=O)NO)cc2)cc1 [Compound 164, N-hydroxy-4-(p-tolyltoxy)benzamide] | 40 to 60% | 70 to 80% | –
CNC(=O)c1ccc(Oc2ccc(C3CC4CCC3CC4)cc2)cc1 (stereo not shown) [Compound 211, 4-(4-((1s,4s)-bicyclo[2.2.2]octan-2-yl)phenoxy)-N-methylbenzamide] | 20 to 40% | 40 to 60% | –
CN(C)C(=O)c1ccc(Oc2ccc(C3C[C@@H]4CC[C@H]3C4)cc2)cc1 (stereo partly drawn) [Compound 236, 4-(4-((1S,4R)-bicyclo[2.2.1]heptan-2-yl)phenoxy)-N,N-dimethylbenzamide] | 40 to 60% | 80 to 90% | –
CN(C)C(=O)c1ccc(Oc2ccc(C34CC5CC(CC(C5)C3)C4)cc2)cc1 [Compound 238, 4-(4-((3r,5r,7r)-adamantan-1-yl)pheoxy)-N,N-dimethylbenzamide] | 40 to 60% | 60 to 70% | –
CCCCCc1ccc(Oc2ccc(C(=O)NO)cn2)cc1 [Compound 270, N-hydroxy-6-(4-pentylphenoxy)nicotinamide] | 0 to 20% | 0 to 20% | –
CNC(=O)c1ccc(Oc2ccc(C34CC5CC(CC(C5)C3)C4)cc2)nc1 [Compound 313, 6-(4-((3r,5r,7r)-adamantan-1-yl)phenoxy)-N-methylnicotinamide] | 40 to 60% | 70 to 80% | –
CN(C)C(=O)c1ccc(Oc2ccc(C(F)(F)F)cc2)nc1 [Compound 325, N,N-dimethyl-6-(4-(trifluoromethyl)phenoxy)nicotinamide] | 80 to 90% | – | 1.2 to 1.3
CN(C)C(=O)c1ccc(Oc2ccc(C3C[C@@H]4CC[C@H]3C4)cc2)nc1 (stereo partly drawn) [Compound 336, 6-(4-((1S,4R)-bicyclo[2.2.1]heptan-2-yl)phenoxy)-N,N-dimethylnicotinamide] | 60 to 70% | – | 1.4 to 1.7
CN(C)C(=O)c1ccc(Oc2ccc(C3CC4CCC3CC4)cc2)nc1 (stereo not shown) [Compound 337, 6-(4-((1s,4s)-bicyclo[2.2.2]octan-2-yl)phenoxy)-N,N-dimethylnicotinamide] | 80 to 90% | – | 1.4 to 1.7
COC(=O)c1ccc(Oc2ccc(C3CCCCC3)cc2)c(F)c1 [Compound 385, methyl 4-(4-cyclohexylphenoxy)-3-fluorobenzoate] | 80 to 90% | – | 1.4 to 1.7
CCCCc1ccc(Oc2ccc(C(=O)OCC)cc2F)cc1 [Compound 395, Ethyl 4-(4-butylphenoxy)-3-fluorobenzoate] | 80 to 90% | – | 1.4 to 1.7
CCOC(=O)c1ccc(Oc2ccc(C(C)(C)CC)cc2)c(F)c1 [Compound 399, ethyl 3-fluoro-4-(4-(tert-pentyl)phenoxy)benzoate] | 80 to 90% | – | 1.1 to 1.2
CCOC(=O)c1ccc(Oc2ccc(C3CCCCC3)cc2)c(F)c1 [Compound 410, ethyl 4-(4-cyclohexylphenoxy)-3-fluorobenzoate] | 70 to 80% | – | 1.4 to 1.7
CCC(C)(C)c1ccc(Oc2ccc(C(=O)NO)cc2F)cc1 [Compound 529, 3-fluoro-N-hydroxy-4-(4-(tert-pentyl)phenoxy)benzamide] | 0 to 20% | 0 to 20% | –
CN(C)C(=O)c1ccc(Oc2ccc(C34CC5CC(CC(C5)C3)C4)cc2)c(F)c1 [Compound 596, 4-(4-((3r,5r,7r)-adamantan-1-yl)phenoxy)-3-fluoro-N,N-dimethylbenzamide] | 20 to 40% | 80 to 90% | –
COC(=O)c1ccc(Oc2ccc(C3(C(F)(F)F)CC3)cc2)cc1 [Compound 712, Methyl 4-(4-(1-(trifluoromethyl)cyclopropyl)phenoxy)benzoate] | 80 to 90% | – | 1.1 to 1.2
CN(C)C(=O)c1ccc(Oc2ccc(C3(C(F)(F)F)CC3)cc2)cc1 [Compound 784, N,N-Dimethyl-4-(4-(1-(trifluoromethyl)cyclopropyl)phenoxy)-benzamide] | 40 to 60% | – | 1.2 to 1.3
